Measurements reported in BindingDB's records for doi:10.1021/jm030585i (Merck Research Laboratories, 2004).

Target: T1, Mineralocorticoid receptor (Rattus norvegicus, UniProt P22199)
T1 sequence (P22199 whole entry): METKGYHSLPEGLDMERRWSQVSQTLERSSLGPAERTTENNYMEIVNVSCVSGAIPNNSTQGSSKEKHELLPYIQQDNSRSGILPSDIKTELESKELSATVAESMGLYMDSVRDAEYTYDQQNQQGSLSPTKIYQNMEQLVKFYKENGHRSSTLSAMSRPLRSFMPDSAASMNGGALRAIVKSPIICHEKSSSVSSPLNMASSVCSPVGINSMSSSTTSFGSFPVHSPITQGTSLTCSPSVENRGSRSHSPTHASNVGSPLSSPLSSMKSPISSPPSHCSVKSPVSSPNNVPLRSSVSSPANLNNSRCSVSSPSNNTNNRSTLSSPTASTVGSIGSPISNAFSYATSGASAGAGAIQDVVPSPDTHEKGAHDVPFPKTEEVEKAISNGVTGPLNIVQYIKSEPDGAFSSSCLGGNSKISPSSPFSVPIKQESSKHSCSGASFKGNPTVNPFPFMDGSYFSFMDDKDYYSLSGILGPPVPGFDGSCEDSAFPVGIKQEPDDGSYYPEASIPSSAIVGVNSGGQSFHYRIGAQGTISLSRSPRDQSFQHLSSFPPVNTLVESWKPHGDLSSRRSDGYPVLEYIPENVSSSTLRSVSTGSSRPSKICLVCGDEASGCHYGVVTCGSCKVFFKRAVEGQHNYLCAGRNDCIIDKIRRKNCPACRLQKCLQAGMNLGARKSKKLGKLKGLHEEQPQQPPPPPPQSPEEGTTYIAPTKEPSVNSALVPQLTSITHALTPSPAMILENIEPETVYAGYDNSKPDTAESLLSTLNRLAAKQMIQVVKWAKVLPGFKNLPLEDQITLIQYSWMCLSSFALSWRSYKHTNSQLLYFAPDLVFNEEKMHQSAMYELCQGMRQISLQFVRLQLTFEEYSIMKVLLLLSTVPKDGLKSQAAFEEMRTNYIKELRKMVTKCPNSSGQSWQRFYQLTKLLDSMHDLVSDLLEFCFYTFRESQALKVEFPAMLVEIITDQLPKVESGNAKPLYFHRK

IC50, > 5 µM:
C[C@]12Cc3cnn(-c4ccc(F)cc4)c3C=C1CCC[C@@H]2[C@](C)(O)c1ccc(F)cc1 [(1S)-1-[(4aR,5S)-1-(4-fluorophenyl)-4a-methyl-1H,4H,4aH,5H,6H,7H,8H-cyclohexa[f]indazol-5-yl]-1-(4-fluorophenyl)ethan-1-ol]
C=CCC[C@H](O)[C@H]1CCCC2=Cc3c(cnn3-c3ccc(F)cc3)C[C@@]21C [(1S)-1-[(4aR,5S)-1-(4-fluorophenyl)-4a-methyl-1H,4H,4aH,5H,6H,7H,8H-cyclohexa[f]indazol-5-yl]pent-4-en-1-ol]
COc1cc([C@H](O)[C@H]2CCCC3=Cc4c(cnn4-c4ccc(F)cc4)C[C@@]32C)cc(F)c1F [(R)-[(4aR,5S)-1-(4-fluorophenyl)-4a-methyl-1H,4H,4aH,5H,6H,7H,8H-cyclohexa[f]indazol-5-yl](3,4-difluoro-5-methoxyphenyl)methanol]
C[C@]12Cc3cnn(-c4ccc(F)cc4)c3C=C1CCC[C@@H]2[C@@H](O)c1ccccc1 [(R)-[(4aR,5S)-1-(4-fluorophenyl)-4a-methyl-1H,4H,4aH,5H,6H,7H,8H-cyclohexa[f]indazol-5-yl](phenyl)methanol]
C[C@]12Cc3cnn(-c4ccc(F)cc4)c3C=C1CCC[C@@H]2[C@@H](O)c1ccc(F)cc1 [BMCL173354 benzo[f]indazole, 6]
C[C@]12Cc3cnn(-c4ccc(F)cc4)c3C=C1CCC[C@@H]2[C@H](O)c1ccc(F)cc1 [BMCL173354 benzo[f]indazole, 7]
